Laboratory results as given in ChEMBL document CHEMBL6083286, “Discovery of ERD-12310A as an Exceptionally Potent and Orally Efficacious PROTAC Degrader of Estrogen Receptor α (ERα)” (J Med Chem, 2024).
Activity calls are given as the source filed them. The calls are words filed in the database; no cut-off is given here.

What was measured:
[1] = target: T1, Protein cereblon/Estrogen receptor (Homo sapiens, UniProt P03372+Q96SW2); assay: PROTAC activity at CRBN/ERalpha in human MCF7 cells assessed as reduction in ERalpha protein level measured after 12 hrs by Western blot analysis; assay type: cell-based
Target sequence in this assay (P03372 whole entry): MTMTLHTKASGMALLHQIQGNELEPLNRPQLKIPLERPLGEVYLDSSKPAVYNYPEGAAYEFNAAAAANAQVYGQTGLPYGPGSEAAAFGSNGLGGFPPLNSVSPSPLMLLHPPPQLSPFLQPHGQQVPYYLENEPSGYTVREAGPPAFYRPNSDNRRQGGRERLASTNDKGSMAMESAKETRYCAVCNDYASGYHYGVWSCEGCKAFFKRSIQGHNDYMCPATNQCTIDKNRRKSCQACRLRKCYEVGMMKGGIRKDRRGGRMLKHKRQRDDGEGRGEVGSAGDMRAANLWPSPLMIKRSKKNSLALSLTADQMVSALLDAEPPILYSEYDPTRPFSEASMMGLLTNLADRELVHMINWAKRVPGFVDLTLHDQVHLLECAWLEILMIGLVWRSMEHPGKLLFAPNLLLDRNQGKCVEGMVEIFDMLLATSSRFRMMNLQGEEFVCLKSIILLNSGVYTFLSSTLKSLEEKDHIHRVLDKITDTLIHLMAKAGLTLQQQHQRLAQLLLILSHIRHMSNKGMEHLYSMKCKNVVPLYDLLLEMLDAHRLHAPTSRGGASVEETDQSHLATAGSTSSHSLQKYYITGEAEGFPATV
Target sequence in this assay (Q96SW2 whole entry): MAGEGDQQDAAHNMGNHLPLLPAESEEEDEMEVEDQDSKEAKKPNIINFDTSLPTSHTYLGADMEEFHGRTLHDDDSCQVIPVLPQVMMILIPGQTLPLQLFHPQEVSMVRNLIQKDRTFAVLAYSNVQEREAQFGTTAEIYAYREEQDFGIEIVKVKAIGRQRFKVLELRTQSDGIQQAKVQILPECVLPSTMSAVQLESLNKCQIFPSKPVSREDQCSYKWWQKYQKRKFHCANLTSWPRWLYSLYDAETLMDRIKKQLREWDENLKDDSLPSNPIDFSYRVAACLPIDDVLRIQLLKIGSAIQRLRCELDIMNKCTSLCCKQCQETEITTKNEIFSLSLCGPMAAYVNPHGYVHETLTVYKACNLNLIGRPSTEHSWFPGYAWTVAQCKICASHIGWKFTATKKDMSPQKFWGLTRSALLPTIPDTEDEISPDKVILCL

[2] = target: T1, Protein cereblon/Estrogen receptor; assay: PROTAC activity at CRBN/ERalpha in human MCF7 cells assessed as reduction in ERalpha protein level measured after 12 hrs by Western blot analysis relative to control; assay type: cell-based
Target sequence in this assay (P03372 whole entry, looked up): as the sequence (P03372 whole entry) above
Target sequence in this assay (Q96SW2 whole entry, looked up): as the sequence (Q96SW2 whole entry) above

T47D [3] = assay: PROTAC activity at CRBN/ ERalpha Y537S mutant in human T47D cells assessed as reduction in ERalpha protein level at 10 to 100 nM measured at 7 hrs by Western blot analysis; assay type: cell-based; set-up: scale not given: the % may be the effect or the level left; conditions: dose 10-100 nM
T47D [4] = assay: PROTAC activity at CRBN/ ERalpha D538G mutant in human T47D cells assessed as reduction in ERalpha protein level at 10 to 100 nM measured at 7 hrs by Western blot analysis; assay type: cell-based; set-up: scale not given: the % may be the effect or the level left; conditions: dose 10-100 nM
Protein cereblon = Protein cereblon (Homo sapiens, UniProt Q96SW2); assay: Binding affinity to wild type GST-tagged human CRBN by HTRF assay
[5] = Metabolic stability mouse liver microsome assessed as half life; assay type: ADME; conditions: microsomes
[6] = Metabolic stability rat liver microsome assessed as half life; assay type: ADME; conditions: microsomes
[7] = Stability in mouse plasma assessed as half life; assay type: ADME, cell-free
[8] = Stability in rat plasma assessed as half life; assay type: ADME, cell-free
[9] = Stability in human plasma assessed as half life; assay type: ADME, cell-free
[10] = target: T1, Protein cereblon/Estrogen receptor; assay: PROTAC activity at CRBN/wild type ERalpha in human T47D cells assessed as reduction in ERalpha protein level at 10 to 100 nM measured at 7 hrs by Western blot analysis; assay type: cell-based; conditions: dose 10-100 nM
Target sequence in this assay (P03372 whole entry, looked up): as the sequence (P03372 whole entry) above
Target sequence in this assay (Q96SW2 whole entry, looked up): as the sequence (Q96SW2 whole entry) above

MCF7 = assay: Antiproliferative activity against human MCF7 cells assessed as cell growth inhibition incubated for 4 days by crystal violet staining based assay; assay type: functional; conditions: time 4.0 day
[11] = Drug concentration in female Sprague-Dawley rat plasma at 3 mg/kg, po measured at 1 hr by LC-MS analysis; assay type: ADME, organism-based
[12] = Drug concentration in female Sprague-Dawley rat plasma at 3 mg/kg, po measured at 3 hrs by LC-MS analysis; assay type: ADME, organism-based
[13] = Drug concentration in female Sprague-Dawley rat plasma at 3 mg/kg, po measured at 6 hrs by LC-MS analysis; assay type: ADME, organism-based
[14] = Drug concentration in female Sprague-Dawley rat plasma at 3 mg/kg, po measured at 24 hrs by LC-MS analysis; assay type: ADME, organism-based

Protein cereblon, sequence (Q96SW2 whole entry): as above

| Compound | DC50 [1] [nM] | Emax [2] [%] | also measured |
| --- | --- | --- | --- |
| O=C1CC[C@H](N2Cc3c(ccc4c3OCC43CCN(C(=O)CN4CCC5(CCN(c6ccc([C@@H]7c8ccc(O)cc8CC[C@@H]7c7ccccc7)cc6)CC5)C4)CC3)C2=O)C(=O)N1 | 0.029 | 107 |  |
| O=C1CC[C@H](N2Cc3c(ccc4c3OCC43CCN(CC4CCC5(CCN(c6ccc([C@@H]7c8ccc(O)cc8CC[C@@H]7c7ccccc7)cc6)CC5)O4)CC3)C2=O)C(=O)N1 (stereo partly drawn) | 0.604 | 86 |  |
| O=C1CC[C@H](N2Cc3c(ccc4c3OCC43CCN(C(=O)CCCC4CCN(c5ccc([C@@H]6c7ccc(O)cc7CC[C@@H]6c6ccccc6)cc5)CC4)CC3)C2=O)C(=O)N1 | 0.079 | 95 |  |
| O=C1CC[C@H](N2Cc3c(ccc4c3OCC43CCN(CC4COC5(CCN(c6ccc([C@@H]7c8ccc(O)cc8CC[C@@H]7c7ccccc7)cc6)CC5)OC4)CC3)C2=O)C(=O)N1 | 0.167 | 100 |  |
| O=C1CC[C@H](N2Cc3c(ccc4c3OCC43CCN(C(=O)C4CCN(c5ccc([C@@H]6c7ccc(O)cc7CC[C@@H]6c6ccccc6)cc5)CC4)CC3)C2=O)C(=O)N1 | 0.028 | 82 |  |
| O=C1CC[C@H](N2Cc3c(ccc4c3OCC43CCN(CC4CC5(CCN(c6ccc([C@@H]7c8ccc(O)cc8CC[C@@H]7c7ccccc7)cc6)CC5)C4)CC3)C2=O)C(=O)N1 | 0.147 | 87 |  |
| O=C1CC[C@H](N2Cc3c(ccc4c3OCC43CCN(CCC4CCN(c5ccc([C@@H]6c7ccc(O)cc7CC[C@@H]6c6ccccc6)cc5)CC4)CC3)C2=O)C(=O)N1 | 0.0043 | 80 |  |
| C[C@]12CC[C@@H]3c4ccc(O)cc4C[C@@H](CCCCCCCCC[S+]([O-])CCCC(F)(F)C(F)(F)F)[C@H]3[C@@H]1CC[C@@H]2O (stereo partly drawn) |  | 100 |  |
| O=C1CC[C@H](N2Cc3c(ccc4c3OCC43CCN(C(=O)CN4CC5(C4)CN(c4ccc([C@@H]6c7ccc(O)cc7CC[C@@H]6c6ccccc6)cc4)C5)CC3)C2=O)C(=O)N1 | 0.011 | 99 |  |
| O=C1CC[C@H](N2Cc3c(ccc4c3OCC43CCN(CCCCC4CCN(c5ccc([C@@H]6c7ccc(O)cc7CC[C@@H]6c6ccccc6)cc5)CC4)CC3)C2=O)C(=O)N1 | 0.031 | 105 |  |
| O=C1CC[C@H](N2Cc3c(ccc4c3OCC43CCN(CC4CCC5(CC4)CN(c4ccc([C@@H]6c7ccc(O)cc7CC[C@@H]6c6ccccc6)cc4)C5)CC3)C2=O)C(=O)N1 | 0.11 | 95 |  |
| O=C1CC[C@H](N2Cc3c(ccc4c3OCC43CCN(CC4CCC5(CC4)CCN(c4ccc([C@@H]6c7ccc(O)cc7CC[C@@H]6c6ccccc6)cc4)CC5)CC3)C2=O)C(=O)N1 | 0.337 | 99 |  |
| O=C1CC[C@H](N2Cc3c(ccc4c3OCC43CCN(CC4CCN(c5ccc([C@@H]6c7ccc(O)cc7CC[C@@H]6c6ccccc6)cc5)CC4)CC3)C2=O)C(=O)N1 |  | 37 |  |
| O=C1CC[C@H](N2Cc3c(ccc4c3OCC43CCN(CCCCCC4CCN(c5ccc([C@@H]6c7ccc(O)cc7CC[C@@H]6c6ccccc6)cc5)CC4)CC3)C2=O)C(=O)N1 | 0.42 | 105 |  |
| O=C1CC[C@H](N2Cc3cc(N4CCN(CC5CCN(c6ccc([C@@H]7c8ccc(O)cc8CC[C@@H]7c7ccccc7)cc6)CC5)CC4)ccc3C2=O)C(=O)N1 [VEPDEGESTRANT] |  |  | Activity (T47D [3]): > 80%; Activity (T47D [4]): > 80% |
| O=C1CC[C@H](N2Cc3c(ccc4c3OCC43CCN(CC4CC5(C4)CN(c4ccc([C@@H]6c7ccc(O)cc7CC[C@@H]6c6ccccc6)cc4)C5)CC3)C2=O)C(=O)N1 | 0.156 | 81 |  |
| O=C1CC[C@H](N2Cc3c(ccc4c3OCC43CCN(CC4CCC5(CCN(c6ccc([C@@H]7c8ccc(O)cc8CC[C@@H]7c7ccccc7)cc6)CC5)OC4)CC3)C2=O)C(=O)N1 (stereo partly drawn) | 0.139 | 99 |  |
| O=C1CC[C@H](N2Cc3c(ccc4c3OCC43CCNCC3)C2=O)C(=O)N1 |  |  | IC50 (Protein cereblon): 230 nM; t1/2 [5]: > 1 h; t1/2 [6]: > 1 h; t1/2 [7]: > 1 h; t1/2 [8]: > 1 h; t1/2 [9]: > 1 h |
| O=C1CC[C@H](N2Cc3c(ccc4c3OCC43CCN(CC(=O)N4CCCC5(CCN(c6ccc([C@@H]7c8ccc(O)cc8CC[C@@H]7c7ccccc7)cc6)CC5)C4)CC3)C2=O)C(=O)N1 | 0.0288 | 99 |  |

| Compound | DC50 [1] [nM] | Emax [2] [%] | also measured |
| --- | --- | --- | --- |
| O=C1CC[C@H](N2Cc3c(ccc4c3OCC43CCN(CCCC4CCN(c5ccc([C@@H]6c7ccc(O)cc7CC[C@@H]6c6ccccc6)cc5)CC4)CC3)C2=O)C(=O)N1 | 0.038 | 98 |  |
| CN1C(=O)CC[C@H](N2Cc3c(ccc4c3OCC43CCN(C[C@@H]4CCC5(CCN(c6ccc([C@@H]7c8ccc(O)cc8CC[C@@H]7c7ccccc7)cc6)CC5)OC4)CC3)C2=O)C1=O |  |  | Activity (Protein cereblon): inactive; Activity [10]: inactive; Activity (T47D [3]): inactive; Activity (T47D [4]): inactive; Activity (MCF7): Active |
| O=C1CC[C@H](N2Cc3c(ccc4c3OCC43CCN(C(=O)CN4CCC5(CC4)CN(c4ccc([C@@H]6c7ccc(O)cc7CC[C@@H]6c6ccccc6)cc4)C5)CC3)C2=O)C(=O)N1 | 0.034 | 96 | concentration at 1 h [11]: 16 ng/mL; concentration at 3 h [12]: 13 ng/mL; concentration at 6 h [13]: 9 ng/mL; concentration at 24 h [14]: < 5 ng/mL |
| O=C1CCC(N2Cc3c(ccc4c3OCC43CCN(CC4COC5(CCN(c6ccc([C@@H]7c8ccc(O)cc8CC[C@@H]7c7ccccc7)cc6)CC5)C4)CC3)C2=O)C(=O)N1 (stereo partly drawn) | 0.041 | 79 |  |
| CCNCCc1ccc(CN(CC)c2cc(OC)ccc2[C@@H]2CCc3cc(O)ccc3C2)cc1 |  |  | Activity [10]: Active; Activity (T47D [3]): Active; Activity (T47D [4]): Active |
| O=C1CC[C@H](N2Cc3c(ccc4c3OCC43CCN(C[C@H]4CCC5(CCN(c6ccc([C@@H]7c8ccc(O)cc8CC[C@@H]7c7ccccc7)cc6)CC5)OC4)CC3)C2=O)C(=O)N1 | 0.142 | 100 |  |
| O=C1CC[C@H](N2Cc3c(ccc4c3OCC43CCN(CC(=O)N4CCC5(CC4)CCN(c4ccc([C@@H]6c7ccc(O)cc7CC[C@@H]6c6ccccc6)cc4)CC5)CC3)C2=O)C(=O)N1 | 0.0363 | 105 |  |
| O=C1CC[C@H](N2Cc3c(ccc4c3OCC43CCN(CC4CC5(CCN(c6ccc([C@@H]7c8ccc(O)cc8CC[C@@H]7c7ccccc7)cc6)CC5)CO4)CC3)C2=O)C(=O)N1 (stereo partly drawn) | 0.303 | 94 |  |
| O=C1CC[C@H](N2Cc3c(ccc4c3OCC43CCN(CC4CCC5(CCN(c6ccc([C@@H]7c8ccc(O)cc8CC[C@@H]7c7ccccc7)cc6)CC5)C4)CC3)C2=O)C(=O)N1 (stereo partly drawn) | 0.126 | 92 |  |
| O=C1CC[C@H](N2Cc3c(ccc4c3OCC43CCN(CC(=O)N4CCC5(CC4)CN(c4ccc([C@@H]6c7ccc(O)cc7CC[C@@H]6c6ccccc6)cc4)C5)CC3)C2=O)C(=O)N1 | 0.253 | 102 | concentration at 1 h [11]: 32 ng/mL; concentration at 3 h [12]: 26 ng/mL; concentration at 6 h [13]: 17 ng/mL; concentration at 24 h [14]: < 5 ng/mL |
| O=C1CC[C@H](N2Cc3c(ccc4c3OCC43CCN(C(=O)CCC4CCN(c5ccc([C@@H]6c7ccc(O)cc7CC[C@@H]6c6ccccc6)cc5)CC4)CC3)C2=O)C(=O)N1 | 0.116 | 89 |  |
| O=C1CC[C@H](N2Cc3c(ccc4c3OCC43CCN(C(=O)CC4CCN(c5ccc([C@@H]6c7ccc(O)cc7CC[C@@H]6c6ccccc6)cc5)CC4)CC3)C2=O)C(=O)N1 | 0.025 | 86 |  |
| O=C1CC[C@H](N2Cc3c(ccc4c3OCC43CCN(CC(=O)N4CC5(C4)CN(c4ccc([C@@H]6c7ccc(O)cc7CC[C@@H]6c6ccccc6)cc4)C5)CC3)C2=O)C(=O)N1 | 0.0142 | 99 |  |
| CN(C)C[C@@H]1CCC2(CCN(c3ccc([C@@H]4c5ccc(O)cc5CC[C@@H]4c4ccccc4)cc3)CC2)OC1 |  |  | Activity [10]: inactive; Activity (T47D [3]): inactive; Activity (T47D [4]): inactive; Activity (MCF7): Active |
| Oc1ccc2c(c1)CC[C@H](c1ccccc1)[C@@H]2c1ccc(OCCN2CCCC2)cc1 |  |  | Activity [10]: inactive; Activity (T47D [3]): inactive; Activity (T47D [4]): inactive |
| O=C1CC[C@H](N2Cc3c(ccc4c3OCC43CCN(C(=O)CN4CC5(CCN(c6ccc([C@@H]7c8ccc(O)cc8CC[C@@H]7c7ccccc7)cc6)CC5)C4)CC3)C2=O)C(=O)N1 | 0.018 | 106 |  |
| O=C1CC[C@H](N2Cc3c(ccc4c3OCC43CCN(C(=O)CN4CCC5(CC4)CCN(c4ccc([C@@H]6c7ccc(O)cc7CC[C@@H]6c6ccccc6)cc4)CC5)CC3)C2=O)C(=O)N1 | 0.035 | 103 |  |
| O=C1CC[C@H](N2Cc3c(ccc4c3OCC43CCN(CC(=O)N4CCC5(CCN(c6ccc([C@@H]7c8ccc(O)cc8CC[C@@H]7c7ccccc7)cc6)CC5)C4)CC3)C2=O)C(=O)N1 | 0.0419 | 100 |  |
| O=C1CC[C@H](N2Cc3c(ccc4c3OCC43CCN(C(=O)CN4CCCC5(CCN(c6ccc([C@@H]7c8ccc(O)cc8CC[C@@H]7c7ccccc7)cc6)CC5)C4)CC3)C2=O)C(=O)N1 | 0.202 | 95 |  |
